{
  "source": "patent US12594282B2",
  "about": "“Use of small molecule compounds in the treatment of diseases mediated by lung epithelial cell injury and/or vascular endothelial cell injury” (Guangzhou Cellprotek Pharmaceutical Co., Ltd., priority 2020, dated 2026)",
  "key": {"[1]": {"system": "NR4A3", "experiment": "NR4A3 ubiquitination after OGD-R in vascular endothelial cells (immunoprecipitation with anti-ubiquitin antibodies)", "type": "cell-based", "details": "YC-6 10 μM; MG132 100 nM; given at restoration", "experimental": "(§1) HUVEC cells were cultured in modified DMEM medium containing 10% fetal bovine serum. When the cells reached about 80% confluence, the cells were digested with 0.25% trypsin, and then pipetted evenly with modified DMEM containing 10% […]. The cell concentration was adjusted to 1×10^5 cells/mL, and the cells were seeded at 400 uL/well in a 24-well plate, and the experiment was carried out when the cells grew to about 70% confluence. RAOEC cells were cultured in high-glucose DMEM medium containing 10% fetal bovine serum, and the seeding conditions were the same as those of HUVEC. During the OGD-R injury treatment, the hypoxia workstation was set to have an oxygen concentration of 1% (1% O2, 5% CO2, 94% N2), a temperature of 37° C., and a humidity of 85%. A sugar-free DMEM medium was placed in the hypoxia workstation for pre-hypoxia for 3 hours. The medium in the culture plate was aspirated, and the plate was washed twice with preheated sugar-free DMEM medium, and 100 uL of sugar-free DMEM medium was added to each well. The culture plate was placed in the hypoxia workstation, and 300 uL of pre-hypoxic sugar-free DMEM medium was added to each well, and then the culture plate was placed in the hypoxia workstation for additional hypoxia for 4 hours. Restoration was then performed. The culture plate was taken out, and the sugar-free DMEM medium was replaced with 400 uL of normal medium containing 10% fetal bovine serum, and then the plate was placed in a 37° C. 5% CO2 cell incubator for culturing for 24 hours or a specified time period. For the cells in the normal group, it was only replaced with 400 uL of new normal medium containing 10% fetal bovine serum. […]\n(§2) The cells were washed twice with pre-cooled PBS, then scraped off with a cell scraper and transferred to a 1.5 mL centrifuge tube, and centrifugation was performed at 4° C. and 1000 g for 5 minutes. […] Each protein sample was then quantified using the BCA protein quantification kit. After protein quantification, IP lysis buffer was used to adjust the protein concentration of each sample to 1 mg/mL. […]"}, "[2]": {"system": "NR4A3", "experiment": "NR4A3 protein expression under OGD-R, RAOEC (Western blot, immunofluorescence)", "type": "cell-based, rat", "details": "for degradation of NR4A3 during restoration injury: given together with CHX 100 μM, MG132 10, 30, 100 nM, CQ 10, 30, 100 μM", "experimental": "as §1\nas §2, with “protein” for “IP”, “be consistent with the protein sample with the lowest concentration, and then each protein sample was sufficiently mixed with 5× protein loading buffer at a ratio of 4:1.” for “1 mg/mL.”"}, "[3]": {"system": "NR4A3", "experiment": "NR4A3 protein expression under OGD-R, HUVEC (Western blot, immunofluorescence)", "type": "cell-based, human", "details": "for degradation of NR4A3 during restoration injury: given together with CHX 100 μM, MG132 10, 30, 100 nM, CQ 10, 30, 100 μM", "experimental": "as §1\nas §2, with “protein” for “IP”, “be consistent with the protein sample with the lowest concentration, and then each protein sample was sufficiently mixed with 5× protein loading buffer at a ratio of 4:1.” for “1 mg/mL.”"}, "[4]": {"system": "human alveolar epithelial A549 cells", "details": "A549 cells in vitro; cited from earlier work"}, "[5]": {"system": "PFKFB3", "details": "mouse model of LPS-induced pulmonary fibrosis; cited from earlier work"}, "[6]": {"details": "100 μM given during restoration after OGD"}},
  "note": "Peptide text beside a SMILES is read from it. * marks the point of attachment. Cbz = O=C(OCc1ccccc1)*",
  "data": [
    {"smiles": "CC(C)C[C@@H](C=O)NC(=O)[C@H](CC(C)C)NC(=O)[C@H](CC(C)C)NC(=O)OCc1ccccc1", "note": "[MG132] (Cbz-Leu-Leu-Leu-aldehyde)", "values": [
      {"measurement": "ubiquitination modification of NR4A3 induced by restoration", "setting": "[1]", "result": "increase of ubiquitinated NR4A3"},
      {"measurement": "degradation of NR4A3 during restoration injury", "setting": "[2]", "result": "could inhibit the degradation of NR4A3"},
      {"measurement": "degradation of NR4A3 during restoration injury", "setting": "[3]", "result": "could inhibit the degradation of NR4A3"}
    ]},
    {"smiles": "O=C(/C=C/c1cccnc1)c1ccncc1", "note": "[3PO]", "values": [
      {"measurement": "LPS-induced apoptosis, inflammatory cytokine production, enhanced glycolytic flux and increased ROS", "setting": "[4]", "result": "reversed"},
      {"measurement": "upregulation of PFKFB3 expression and enhanced aerobic glycolysis", "setting": "[5]", "result": "could reverse the significant upregulation of PFKFB3 expression and enhanced aerobic glycolysis"}
    ]},
    {"smiles": "CCN(CC)CCCC(C)Nc1ccnc2cc(Cl)ccc12", "note": "(stereo not drawn) [CQ, Chloroquine]", "values": [
      {"measurement": "degradation of NR4A3 during restoration injury", "setting": "[2]", "result": "did not significantly inhibit the degradation of NR4A3"},
      {"measurement": "degradation of NR4A3 during restoration injury", "setting": "[3]", "result": "did not significantly inhibit the degradation of NR4A3"}
    ]},
    {"smiles": "C[C@@H]1C[C@@H]([C@H](O)CC2CC(=O)NC(=O)C2)C(=O)[C@@H](C)C1", "note": "[CHX, Cycloheximide]", "values": [
      {"measurement": "NR4A3 protein level during restoration", "setting": "[2]; [6]", "result": "almost complete depletion of NR4A3 protein"},
      {"measurement": "NR4A3 protein level during restoration", "setting": "[3]; [6]", "result": "almost complete depletion of NR4A3 protein"}
    ]}
  ]
}
